# Measured values from PMC3578011 (Journal of neurochemistry, 2013).
# Entries after “also recorded” stand apart in the source; their conditions may differ.
# Assays:
# CB1 wild-type receptor = CB1 wild-type receptor (Homo sapiens, UniProt P21554); test: [35S]GTPγS binding assay; format: biochemical
# CB1 [1] = molecular target: T1, CB1 (Homo sapiens, UniProt P21554); conditions: for time of maximal ERK1/2 phosphorylation: 0.5 µM CP55,940 or 3.2 µM ICAM-b
# CB1 [2] = molecular target: T1, CB1; test: Radioligand binding assay, cooperativity with [3H]SR141716A; conditions: for effect on [3H]SR141716A binding: in the concentration range tested
# [3] = Solubility in organic solvents; format: physicochemical; conditions: except tetrahydrofuran (THF)
# CB1 [4] = molecular target: T1, CB1; test: Radioligand binding assay, cooperativity with [3H]CP55,940; conditions: for cooperativity factor (α): from [3H]CP55,940 binding curves, membranes of HEK293 cells expressing CB1
# CB1 [5] = molecular target: T1, CB1; format: binding; conditions: in the presence of ICAM-b
# Chain of CB1 wild-type receptor (P21554 whole entry): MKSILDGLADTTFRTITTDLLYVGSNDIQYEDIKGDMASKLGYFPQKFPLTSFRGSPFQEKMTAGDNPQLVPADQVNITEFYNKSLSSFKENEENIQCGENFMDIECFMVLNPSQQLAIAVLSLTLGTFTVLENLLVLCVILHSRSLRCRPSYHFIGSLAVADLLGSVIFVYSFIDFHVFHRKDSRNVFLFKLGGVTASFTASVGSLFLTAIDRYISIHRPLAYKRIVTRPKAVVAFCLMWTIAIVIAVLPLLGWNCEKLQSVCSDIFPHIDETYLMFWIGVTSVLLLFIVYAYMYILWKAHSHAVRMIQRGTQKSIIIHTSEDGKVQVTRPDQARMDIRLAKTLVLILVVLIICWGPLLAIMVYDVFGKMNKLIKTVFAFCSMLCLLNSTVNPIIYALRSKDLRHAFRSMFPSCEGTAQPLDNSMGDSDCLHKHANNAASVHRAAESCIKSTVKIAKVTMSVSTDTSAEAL
# T1 sequence (P21554 whole entry): as above
compound,measurement,setting,value
"CCCCCCC(C)(C)c1ccc([C@@H]2C[C@H](O)CC[C@H]2CCCO)c(O)c1 [CP55,940, (1R,3R,4R)-3-[2-hydroxy-4-(1,1-dimethylheptyl)-phenyl]-4-(3-hydroxypropyl)cyclohexan-1-ol, reference compound]","Emax of CP55,940-induced [35S]GTPγS binding",CB1 wild-type receptor; in the absence of ICAM-b,98.9 fmol/mg
same,time of maximal ERK1/2 phosphorylation,CB1 [1]; HEK293 cells expressing CB1,5 min
"CCc1c(C(=O)NCCc2ccc(N3CCCCC3)cc2)n(C)c2ccc(Cl)cc12 [ICAM-a, 5-chloro-3-ethyl-1-methyl-N-(4-(piperidin-1-yl)phenethyl)-1H-indole-2-carboxamide]",effect on [3H]SR141716A binding,CB1 [2],little effect; also recorded: no effect
same,solubility in common organic solvents,[3],poor
same,Kb,CB1 [4],5.78 µM
same,cooperativity factor (α),CB1 [4],11.9
"CCCCCc1c(C(=O)NCCc2ccc(N3CCCCC3)cc2)[nH]c2ccc(Cl)cc12 [ICAM-b, 5-chloro-3-pentyl-N-(4-(piperidin-1-yl)phenethyl)-1H-indole-2-carboxamide]","inhibition of CP55,940-induced [35S]GTPγS binding",CB1 wild-type receptor; 3.2 µM ICAM-b,complete inhibition
same,[35S]GTPγS binding level,"CB1 wild-type receptor; 3.2 µM ICAM-b, basal level 50.1 fmol/mg",42.1 fmol/mg
same,"Emax of CP55,940-induced [35S]GTPγS binding",CB1 wild-type receptor; in the presence of 0.32 µM ICAM-b,78.7 fmol/mg
same,"Emax of CP55,940-induced [35S]GTPγS binding",CB1 wild-type receptor; in the presence of 1 µM ICAM-b,59.3 fmol/mg
same,time of maximal ERK1/2 phosphorylation,CB1 [1]; HEK293 cells expressing CB1,5 min
same,"transient ERK1/2 phosphorylation compared with CP55,940 alone","CB1 [1]; ICAM-b alone, control siRNA, HEK293 cells expressing CB1",larger increase
same,effect of β-arrestin 2 siRNA on patterns of ERK1/2 phosphorylation,CB1 [1]; compared to control siRNA transfection,did not alter
same,cooperativity factor (α),"CB1 [2]; [3H]SR141716A as tracer, membranes of HEK293 cells expressing CB1",0.11
same,effect on [3H]SR141716A binding,CB1 [2],substantial decrease
same,solubility in common organic solvents,[3],poor
same,cooperativity factor (α),CB1 [4],17.6
same,"Bmax changes for CP55,940 and SR141716A",CB1 [5],Negligible
